According to PMC12609530, “Capillary Electrophoresis as a Useful Tool to Separate Isomeric Opioid–Neurotensin Hybrid Peptides” (Molecules, 2025):
Where two headings read alike, the source gives them in different places. Square brackets hold non-standard residues; d marks the D form. Peptide text beside a SMILES is read from it. Dmt = Cc1cc(O)cc(C)c1C[C@H](N)C(=O)O; Tle = CC(C)(C)[C@H](N)C(=O)O

Settings: CE-UV 200 nm; for BenchTop Obtained Concentration, Mean ± SD / BenchTop Obtained Concentration, %: after 6 h at room temperature; for BenchTop Obtained Concentration, Mean ± SD: ACN/0.1% TFA extraction; for BenchTop Obtained Concentration, Mean ± SD / Freeze and Thaw Obtained Concentration, Mean ± SD / Short Term Obtained Concentration, Mean ± SD: mean ± SD for five replicates; for BenchTop Obtained Concentration, % / Freeze and Thaw Obtained Concentration, % / Short Term Obtained Concentration, %: % of spiked concentration, five replicates; for Freeze and Thaw Obtained Concentration, % / Freeze and Thaw Obtained Concentration, Mean ± SD: after three freeze and thaw cycles at −20 °C; for Short Term Obtained Concentration, % / Short Term Obtained Concentration, Mean ± SD: at −25 °C for 30 days
Protocol: To ensure the applicability of the method for bioanalytical studies, stability tests were conducted under various storage and handling conditions.
The stock solutions of PK20 and [Ile9]PK20 compounds at a concentration of 10,000 ng/mL were prepared by dissolving the appropriate amounts of the substances in a 25 mM phosphate buffer at pH 2.5. Calibration solutions at specific concentrations were prepared on their basis. All solutions were stored at −15 °C. […] Calibration solutions at concentrations of 10, 50, 100, 500, 1000, and 5000 ng/mL were prepared in both water and serum by adding appropriate volumes of the stock solutions to serum samples free of the tested analytes.
To a 100 µL serum sample, 200 µL of acetonitrile (ACN) containing 0.1% trifluoroacetic acid (TFA) was added then immediately mixed by vortexing and centrifuged at 20,000× g for 4 min. The resulting supernatant was filtered using an ultrafiltration centrifuge (MWCO 30,000; Microcon YM-30, Millipore Corporation, Bradford, MA, USA) and then lyophilized. The dry residue was dissolved in 100 µL of deionized water and introduced into the capillary. The extraction procedure for PK20 and [Ile9]PK20 compounds was performed for three concentration ranges, namely 20 ng/mL, 500 ng/mL, and 5000 ng/mL.
Samples were introduced into the system hydrodynamically at a pressure of 2 psi for 6 s. Electrophoresis was performed at a voltage of 10 kV (normal polarity, anode on the inlet side of the capillary) at a temperature of 25 °C. Between subsequent analyses, the capillary was rinsed with water for 2 min and with BGE for 3 min. After each series of analyses, the working buffer was replaced to ensure repeatable separations.

Row | Structure (SMILES) | BenchTop Obtained Concentration, Mean ± SD (spiked 50 ng/mL in serum) | BenchTop Obtained Concentration, % (spiked 50 ng/mL in serum) | Freeze and Thaw Obtained Concentration, % (spiked 50 ng/mL in serum) | Freeze and Thaw Obtained Concentration, Mean ± SD (spiked 50 ng/mL in serum) | Short Term Obtained Concentration, % (spiked 50 ng/mL in serum) | Short Term Obtained Concentration, Mean ± SD (spiked 50 ng/mL in serum) | BenchTop Obtained Concentration, Mean ± SD (spiked 500 ng/mL in serum) | BenchTop Obtained Concentration, % (spiked 500 ng/mL in serum) | Freeze and Thaw Obtained Concentration, % (spiked 500 ng/mL in serum) | Freeze and Thaw Obtained Concentration, Mean ± SD (spiked 500 ng/mL in serum) | Short Term Obtained Concentration, % (spiked 500 ng/mL in serum) | Short Term Obtained Concentration, Mean ± SD (spiked 500 ng/mL in serum)
1 | CC[C@H](C)[C@H](NC(=O)[C@H](Cc1ccccc1)NC(=O)[C@@H]1CCCN1C(=O)[C@H](CCCCN)NC(=O)[C@H](CCCCN)NC(=O)[C@H](Cc1ccccc1)NC(=O)[C@H](Cc1ccccc1)NC(=O)[C@@H](CCCCN)NC(=O)[C@@H](N)Cc1c(C)cc(O)cc1C)C(=O)N[C@@H](CC(C)C)C(=O)O [[Ile9]PK20, H-Dmt-D-Lys-Phe-Phe-Lys-Lys-Pro-Phe-Ile-Leu-OH] (H-[Dmt][dK]FFKKPFIL-OH) | 24.46 ± 1.1 ng/mL | 48.92% | 25.44% | 12.72 ± 1.4 ng/mL | 97.70% | 48.85 ± 1.2 ng/mL | 246.15 ± 1.0 ng/mL | 49.23% | 25.51% | 127.53 ± 1.2 ng/mL | 99.56% | 497.80 ± 1.1 ng/mL
2 | Cc1cc(O)cc(C)c1C[C@H](N)C(=O)N[C@H](CCCCN)C(=O)N[C@@H](Cc1ccccc1)C(=O)N[C@@H](Cc1ccccc1)C(=O)N[C@@H](CCCCN)C(=O)N[C@@H](CCCCN)C(=O)N1CCC[C@H]1C(=O)N[C@@H](Cc1ccccc1)C(=O)N[C@H](C(=O)N[C@@H](CC(C)C)C(=O)O)C(C)(C)C [PK20, H-Dmt-D-Lys-Phe-Phe-Lys-Lys-Pro-Phe-Tle-Leu-OH] (H-[Dmt][dK]FFKKPF[Tle]L-OH) | 23.92 ± 1.2 ng/mL | 47.84% | 24.10% | 12.05 ± 1.5 ng/mL | 95.04% | 47.52 ± 1.4 ng/mL | 240.53 ± 0.9 ng/mL | 48.11% | 25.24% | 126.20 ± 0.7 ng/mL | 99.12% | 495.58 ± 1.1 ng/mL
